Source: PMC12663132, “Assessment of cytotoxicity of some synthetic compounds against breast carcinoma spheroids with subsequent analysis of pro-apoptotic and gene expression” (Scientific Reports, 2025)

Columns and labels:
MCF7 = test: Cytotoxicity on MCF7 monolayers (MTT assay); conditions: for % inhibition 2D / Mean of % cytotoxicity ± SD: MCF7 monolayer; for % inhibition 2D: 50 µM; for Mean of % cytotoxicity ± SD: 50µM, 72 h, MTT; for cytotoxicity at 50 µM: Homo sapiens, MCF7, 72 h, read-out: Mean of % cytotoxicity ± SD
Method: (§1) Eighty pre-plated synthetic chemical compounds were screened on two human cell lines: MCF7 (ATCC® HTB-22™), a Caucasian breast adenocarcinoma model, and hTERT-RPE-1 (ATCC® CRL-4000™), a normal retinal epithelial cell line immortalized by hTERT telomerase. […] The cells were cultured in DMEM-F12 medium supplemented with L-glutamine and 10% fetal bovine serum, all were purchase from Biowest (Biotechnology company in Nuaillé, France), and maintained in a controlled incubator environment set at 37 °C with 5% CO2 and 95% humidity.
MCF7 cells were seeded in flat-bottom 96-well plates with a concentration of 20,000 cells/well, and were left overnight. The compounds were tested at a final concentration of 50 µM. Doxorubicin was used as a positive control and 0.5% DMSO as a negative control. The treatment duration was 72 h. The cytotoxicity was then assessed using the MTT assay, as described by Mosmann[43].

MCF7 3D spheroids = test: Cytotoxicity on MCF7 3D multicellular spheroids (acid phosphatase method); conditions: for % inhibition 3D / Mean of % cytotoxicity ± S.D: MCF7 3D spheroids; for % inhibition 3D: 50 µM; for Mean of % cytotoxicity ± S.D: 50µM, 120 h; for cytotoxicity at 50 µM: Homo sapiens, MCF7, 120 h, read-out: Mean of % cytotoxicity ± S.D
Method: as §1
3-D spheroid models were generated from MCF7 cancer and hTERT-RPE1 normal cells were seeded at 10,000 and 50,000 cells/well, respectively, in poly-HEMA coated round bottom plates according to the protocol previously mentioned[44]. The cells were incubated for 5 days to generate the spheroids with diameter of 500 ± 20 µm. The spheroids were imaged using Olympus S100, U-CMAD3 camera connected to Olympus inverted microscope and the diameter of the spheroids was measured using Cellscen-Entry software. Test compounds were added in triplicate to a final concentration of 50 µM and were incubated for 120 h. […] At the end of incubation, cytotoxicity was determined using the acid phosphatase method[45]. After washing twice with 250 μL PBS buffer, 100 μL of 0.1 M sodium citrate, 0.1% Triton X-100, p-nitrophenylphosphate (2 mg/ml) (Pierce Biotechnology Inc., Rockford, IL) was added to each well and incubated for 1.5 h at 37 °C. After incubation, 10 μL of 1N NaOH stop solution was added to each well, and absorbance was read at 405 nm. Cytotoxicity was calculated according to the following equation:

NC(=NOC(=O)Nc1ccc(OC(F)(F)F)cc1)c1cnccn1 [E08, N'-({[4-(trifluoromethoxy)anilino]carbonyl}oxy) pyrazine-2-carboximidamide]
% inhibition 2D (MCF7): 84.1%
Mean of % cytotoxicity ± SD (MCF7): 84.1 ± 1.6%
% inhibition 3D (MCF7 3D spheroids): 40.2%
Mean of % cytotoxicity ± S.D (MCF7 3D spheroids): 40.2 ± 3.8%

COc1ccc(Cl)cc1NC(=O)Nc1ccc(N2CCCCC2)cc1 [E09, N-(5-chloro-2-methoxyphenyl)-N'-(4-piperidinophenyl) urea]
cytotoxicity at 50 µM (MCF7): 28.3 ± 0.9%
cytotoxicity at 50 µM (MCF7 3D spheroids): 50.7 ± 0.52%

CC1(C)C=Cc2cc(C(N)=NOC(=O)c3cccc(C(F)(F)F)c3)ccc2O1 [E10, O6-[3-(trifluoromethyl)benzoyl]-2,2-dimethyl-2H-chromene-6-carbohydroximamide]
cytotoxicity at 50 µM (MCF7): 100 ± 0.003%
cytotoxicity at 50 µM (MCF7 3D spheroids): 67.5 ± 0.5%

CC1(C)CC(=O)C2=C(C1)OC(N)=C(C#N)C2c1ccc(Cl)cc1 (stereo not drawn) [E11, 2-amino-4-(4-chlorophenyl)-7,7-dimethyl-5-oxo-5,6,7,8-tetrahydro-4H-chromene-3-carbonitrile]
cytotoxicity at 50 µM (MCF7): 93.7 ± 1.29%
cytotoxicity at 50 µM (MCF7 3D spheroids): 66.4 ± 1.9%

O=C1C2CCN(CC2)C1CSc1ccc(Cl)cc1 (stereo not drawn) [F02, 2-{[(4-chlorophenyl)thio]methyl}quinuclidin-3-one]
cytotoxicity at 50 µM (MCF7): 100 ± 0.003%
cytotoxicity at 50 µM (MCF7 3D spheroids): 52 ± 2.9%

O=C1C2CC=CCC2C(=O)N1c1cccc(N2C(=O)C3CC=CCC3C2=O)n1 (stereo not drawn) [F04, 2-[6-(1,3-dioxo-2,3,3a,4,7,7a-hexahydro-1H-isoindol-2-yl)-2-pyridyl]-2,3,3a,4,7,7a-hexahydro-1H-isoindole-1,3-dione]
cytotoxicity at 50 µM (MCF7): 46.9 ± 2.6%
cytotoxicity at 50 µM (MCF7 3D spheroids): 29.8 ± 1.23%

O=C1CNC(=S)N1CCOc1ccc(Cl)cc1 [F05, 3-[2-(4-chlorophenoxy)ethyl]-2-thioxoimidazolidin-4-one]
cytotoxicity at 50 µM (MCF7): 96.9 ± 1.4%
cytotoxicity at 50 µM (MCF7 3D spheroids): 31.6 ± 0.8%

Cc1ccc(S(=O)(=O)CCNC(=O)c2c(-c3c(Cl)cccc3Cl)noc2C)cc1 [F07, N4-{2-[(4-methylphenyl)sulfonyl]ethyl}-3-(2,6-dichlorophenyl)-5-methylisoxazole-4-carboxamide]
cytotoxicity at 50 µM (MCF7): 4.4 ± 0.118%
cytotoxicity at 50 µM (MCF7 3D spheroids): 54.2 ± 0.53%

OC(CSc1ccccc1)CN1CCN(c2nccc(C(F)(F)F)n2)CC1 (stereo not drawn) [F08, 1-(phenylthio)-3-{4-[4-(trifluoromethyl)pyrimidin-2-yl]piperazino}propan-2-ol]
cytotoxicity at 50 µM (MCF7): 100 ± 0.003%
cytotoxicity at 50 µM (MCF7 3D spheroids): 61.6 ± 0.8%

Cc1nnsc1-c1nnc(-c2ccccc2C(F)(F)F)o1 [F09, 2-(4-methyl-1,2,3-thiadiazol-5-yl)-5-[2-(trifluoromethyl)phenyl]-1,3,4-oxadiazole]
cytotoxicity at 50 µM (MCF7): 9.9 ± 3.8%
cytotoxicity at 50 µM (MCF7 3D spheroids): 14.2 ± 0.5%

O=C1C(=C2NC(c3ccccn3)C3C(=O)N(c4ccc(OC(F)(F)F)cc4)C(=O)C23)C(=O)c2ccccc21 (stereo not drawn) [F10, 4-(1,3-dioxo-2,3-dihydro-1H-inden-2-yliden)-6-(2-pyridyl)-2-[4-(trifluoromethoxy)phenyl]perhydropyrrolo [3,4-c]pyrrole-1,3-dione]
cytotoxicity at 50 µM (MCF7): 100 ± 0.003%
cytotoxicity at 50 µM (MCF7 3D spheroids): 60.3 ± 1.1%

NS(=O)(=O)c1cccc(NC(=O)Nc2ccccc2)c1 [F11, 3-[(anilinocarbonyl)amino]benzenesulfonamide]
cytotoxicity at 50 µM (MCF7): 0%
cytotoxicity at 50 µM (MCF7 3D spheroids): 60.4 ± 0.77%

Cn1c(SCC(=O)NN2CC(=O)N(c3cccc(Cl)c3)CC2=O)nnc1-c1ccncc1 [G02, N-[4-(3-chlorophenyl)-2,5-dioxopiperazino]-2-{[4-methyl-5-(4-pyridinyl)-4H-1,2,4-triazol-3-yl]sulfanyl}acetamide]
cytotoxicity at 50 µM (MCF7): 0%
cytotoxicity at 50 µM (MCF7 3D spheroids): -9.9 ± 0.8%

COc1cc(C(F)(F)F)nc2ccc(C#CCOC(=O)c3ccccc3)cc12 [G03, 3-[4-methoxy-2-(trifluoromethyl)-6-quinolyl]prop-2-ynyl benzoate]
cytotoxicity at 50 µM (MCF7): 49.8 ± 2.9%
cytotoxicity at 50 µM (MCF7 3D spheroids): 21.3 ± 0.6%

Cc1nc(-c2ccc(S(=O)(=O)Nc3ccc4c(c3)OCCO4)s2)cs1 [G04, N-(2,3-dihydro-1,4-benzodioxin-6-yl)-5-(2-methyl-1,3-thiazol-4-yl)-2-thiophenesulfonamide]
cytotoxicity at 50 µM (MCF7): 0%
cytotoxicity at 50 µM (MCF7 3D spheroids): 6.3 ± 0.3%

COC(=O)c1sccc1S(=O)(=O)Nc1ccc(-c2cn3c(n2)SCC3)cc1 [G05]
% inhibition 2D (MCF7): 65.7%
Mean of % cytotoxicity ± SD (MCF7): 65.7 ± 1.0%
% inhibition 3D (MCF7 3D spheroids): 35.1%
Mean of % cytotoxicity ± S.D (MCF7 3D spheroids): 35.1 ± 0.6%

O=C(NNC1=Nc2ccccc2SC1)c1ccc(F)cc1 [G06, N'-(2H-1,4-benzothiazin-3-yl)-4-fluorobenzohydrazide]
cytotoxicity at 50 µM (MCF7): 93.4 ± 1.6%
cytotoxicity at 50 µM (MCF7 3D spheroids): 52.3 ± 2.3%

NS(=O)(=O)c1cccc(NC(=O)c2cccnc2Oc2ccccc2)c1 [G07, N-[3-(aminosulfonyl)phenyl]-2-phenoxynicotinamide]
cytotoxicity at 50 µM (MCF7): 0%
cytotoxicity at 50 µM (MCF7 3D spheroids): 35.1 ± 0.77%

N#CCc1ccc(NC(=O)Nc2ccc(OC(F)(F)F)cc2)cc1 [G08, N-[4-(cyanomethyl)phenyl]-N'-[4-(trifluoromethoxy)phenyl]urea]
cytotoxicity at 50 µM (MCF7): 82.8 ± 0.76%
cytotoxicity at 50 µM (MCF7 3D spheroids): 56.2 ± 3%

Cc1c(NCN2C(=O)CCC2=O)cc2c(c1[N+](=O)[O-])C(C)(C)CC2(C)C [G09, 1-{[(1,1,3,3,6-pentamethyl-7-nitro-2,3-dihydro-1H-inden-5-yl)amino]methyl}pyrrolidine-2,5-dione]
cytotoxicity at 50 µM (MCF7): 100 ± 0.005%
cytotoxicity at 50 µM (MCF7 3D spheroids): 66.5 ± 1.1%

ON=Cc1ccc(-c2ccccc2OC(F)(F)F)o1 [G10, 5-[2-(trifluoromethoxy)phenyl]-2-furaldehyde oxime]
cytotoxicity at 50 µM (MCF7): 100 ± 0.003%
cytotoxicity at 50 µM (MCF7 3D spheroids): 54.4 ± 1.2%

CC(=O)Nc1ccc(C=C(C#N)C(N)=O)cc1 [G11, 3-[4-(acetylamino)phenyl]-2-cyanoacrylamide]
cytotoxicity at 50 µM (MCF7): 15.6 ± 1.7%
cytotoxicity at 50 µM (MCF7 3D spheroids): 60.8 ± 1.23%

Clc1ccc(OCCCCCCCCCCOc2ccc(Cl)cc2)cc1 [H02, 1,10-bis(4-chlorophenoxy)decane]
cytotoxicity at 50 µM (MCF7): 68.7 ± 2.7%
cytotoxicity at 50 µM (MCF7 3D spheroids): 3.5 ± 0.8%

Cc1ccc2[nH]c(SCC(=O)NC3Cc4ccccc4C3)nc2c1 [H03, N-(2,3-dihydro-1H-inden-2-yl)-2-[(5-methyl-1H-benzimidazol-2-yl)thio]acetamide]
cytotoxicity at 50 µM (MCF7): 88.5 ± 5.8%
cytotoxicity at 50 µM (MCF7 3D spheroids): 15.8 ± 0.11%

O=C(Nc1ccc2c(c1)COCO2)c1cc2ccccc2oc1=O [H04, N3-(4H-1,3-benzodioxin-6-yl)-2-oxo-2H-chromene-3-carboxamide]
cytotoxicity at 50 µM (MCF7): 46 ± 0.8%
cytotoxicity at 50 µM (MCF7 3D spheroids): 28 ± 0.6%

CS(=O)(=O)CC(N)=S [H05, 2-(methylsulfonyl)ethanethioamide]
cytotoxicity at 50 µM (MCF7): 24.1 ± 1.17%
cytotoxicity at 50 µM (MCF7 3D spheroids): 19.3 ± 0.5%

O=C(O)c1ccc(-c2ccsc2)cc1 [H06, 4-(3-thienyl)benzoic acid]
cytotoxicity at 50 µM (MCF7): 7.8 ± 0.23%
cytotoxicity at 50 µM (MCF7 3D spheroids): 26.1 ± 0.4%

Cc1cc(Br)c(NC(=O)C(Cl)Cl)c(Br)c1 [H07, N1-(2,6-dibromo-4-methylphenyl)-2,2dichloroacetamide]
cytotoxicity at 50 µM (MCF7): 65.3 ± 2.3%
cytotoxicity at 50 µM (MCF7 3D spheroids): 40.6 ± 0.7%

CC(C)N1CC(COc2ccc(Br)cc2)OC1=O (stereo not drawn) [H08, 5-[(4-bromophenoxy)methyl]-3-isopropyl-1,3-oxazolan-2-one]
cytotoxicity at 50 µM (MCF7): 18 ± 2.23%
cytotoxicity at 50 µM (MCF7 3D spheroids): 49 ± 1.4%

CCOC(=O)N1CCC(=NNc2ccc([N+](=O)[O-])cc2[N+](=O)[O-])CC1 [H10, ethyl 4-[2-(2,4-dinitrophenyl)hydrazono]piperidine-1-carboxylate]
cytotoxicity at 50 µM (MCF7): 27.5 ± 1.4%
cytotoxicity at 50 µM (MCF7 3D spheroids): 60.6 ± 1.1%

FC(F)(F)c1ccnc(NCc2ccco2)n1 [H11, N2-(2-furylmethyl)-4-(trifluoromethyl)pyrimidin-2-amine]
cytotoxicity at 50 µM (MCF7): 0%
cytotoxicity at 50 µM (MCF7 3D spheroids): 68.5 ± 0.65%
